According to US20230126310A1 (priority 2020, published 2023):
Where a name gives a salt, the structure may show the parent alone. Read-outs that look alike come from different tables or passages of the source.

Key:
[1] = Compound cytotoxicity against CaCo-2 cells at 48 hours; format: cell-based, Human; conditions: human
Procedure: (§1) The cytotoxicity of the profiled compounds towards CaCo-2 cells at 48 hours was assessed. […] After 48 hours, cytotoxicity was evaluated using both digital phase contrast readout as described above and ATP determination (Cell titre-glo, Promega Corp).

[2] = system: SARS-CoV-2; assay: microbe, parasite or virus in culture; conditions: for inhibition at 10 µM: read-out: % Inh. (% Inhibition of SARS-CoV-2)
[3] = system: SARS-CoV-2; conditions: for % Inh (% inhibition of virus infection): comparative experiments, Examples 1 and 2; for % Inh. (% Inhibition of SARS-CoV-2): 10 µM
[4] = system: CaCo-2 cells; assay: Compound cytotoxicity against CaCo-2 cells at 48 hours; format: cell-based, Human; conditions: read-out: CC50: concentration of 50% cytotoxicity; Table 5, further results of Examples 1 and 2; mean ± spread
Procedure: as §1

[5] = system: SARS-CoV-2 (BetaCov/Belgium/GHB-03021/2020); assay: microbe, parasite or virus in culture; format: cell-based; conditions: for Emax / IC50: Severe acute respiratory syndrome coronavirus 2, 120 h; for Emax: read-out: Maximum confluence reached (%)
[6] = CaCo-2 cells, Table 5, further results of Examples 1 and 2, mean ± spread
[7] = Severe acute respiratory syndrome coronavirus 2, Caco-2, 48 h
[8] = Severe acute respiratory syndrome coronavirus 2, Caco-2, 48 h, read-out: pIC50 (converted)
[9] = comparative experiments, CaCo-2 cells, 48 hours

COC(=O)C[C@](O)(CCCC(C)(C)O)C(=O)O[C@@H]1C(OC)=C[C@]23CCCN2CCc2cc4c(cc2[C@H]13)OCO4 [homoharringtonine]
CC50 at 48 h [1, 6]: 1.72 ± 1.89 µM | IC50 [2, 7]: 2.25 µM | inhibition at 10 µM [2, 7]: 154% | IC50 [2, 8]: 2.24 µM

CN(C)C(=O)COC(=O)Cc1ccc(OC(=O)c2ccc(NC(=N)N)cc2)cc1 [Camostat Mesilate (FOY-305), Camostat Mesilate]
CC50 at 48 h [1, 9]: > 20 µM | % Inh (% inhibition of virus infection) [3]: 86.9%

C[CH2][Hg][S]c1ccccc1C(=O)[O-].[Na+] [THIMEROSAL]
CC50 [4]: 13.5 ± 1.23 µM | IC50 [3]: 1.77 µM | pIC50 [3]: 5.75 | pIC50: -log10 of IC50 [3]: 5.77 | % Inh. (% Inhibition of SARS-CoV-2) [3]: 79.4% | IC50 ([3]; read-out: IC50: concentration of 50% inhibition of virus infection): 1.69 ± 0.13 µM

Cl.Nc1nc(NCC2CCC(CNS(=O)(=O)c3cccc4ccccc34)CC2)nc2ccccc12 (stereo not shown) [CGP-71683]
Maximum confluence reached (%) [5]: 39.25% | % Inh. (% Inhibition of SARS-CoV-2) [3]: 102.5%

CC(=O)N1CCN(c2ccc(OCC3COC(Cn4ccnc4)(c4ccc(Cl)cc4Cl)O3)cc2)CC1 (stereo not shown) [KETOCONAZOLE]
CC50 at 48 h [1, 6]: 28.6 ± 4.97 µM | inhibition at 10 µM [2, 7]: 87.1%

CCS(=O)(=O)N(Cc1cccnc1)c1cccc(-c2ccc(C#N)cc2)c1 [CBiPES]
CC50 [4]: 13.4 ± 6.58 µM | % Inh. (% Inhibition of SARS-CoV-2) [3]: 139.6% | pIC50: -log10 of IC50 ([3]; Table 5, further results of Examples 1 and 2): 4.77 | IC50 ([3]; read-out: IC50: concentration of 50% inhibition of virus infection, Table 5, further results of Examples 1 and 2, […]): 17.1 ± 1.17 µM

O=C(CCCN1CCC2(CC1)C(=O)N(Cc1cccc(F)c1)CN2c1ccccc1)c1ccc(F)cc1.O=C(O)/C=C\C(=O)O [3′-fluorobenzylspiperone]
Maximum confluence reached (%) [5]: 43.04%

Cc1c(C(=O)Nc2ccc(N3C[C@@H](C)O[C@@H](C)C3)nc2)cccc1-c1ccc(OC(F)(F)F)cc1 [LDE225 (NVP-LDE225, Erismodegib), Erismodegib]
CC50 at 48 h [1, 6]: 2.26 ± 1.28 µM | IC50 [2, 7]: 7.03 µM | inhibition at 10 µM [2, 7]: 93.5% | IC50 [2, 8]: 7.08 µM

Cc1cc(C)c(Nc2ccnc(Nc3ccc(C#N)cc3)n2)c(C)c1 [Dapivirine (TMC120), Dapivirine]
CC50 at 48 h [1, 6]: 5 ± 0.07 µM | inhibition at 10 µM [2, 7]: 108%

CNC(=O)c1cc(Oc2ccc(NC(=O)Nc3ccc(Cl)c(C(F)(F)F)c3)c(F)c2)ccn1 [Regorafenib (BAY 73-4506), Regorafenib]
CC50 at 48 h [1, 6]: 0.97 ± 0.6 µM | inhibition at 10 µM [2, 7]: 91.5%

COc1cc2ncnc(Nc3cccc(Br)c3)c2cc1OC.Cl [PD153035 (Hydrochloride)]
Maximum confluence reached (%) [5]: 54.45% | % Inh. (% Inhibition of SARS-CoV-2) [3]: 97.2%

CC1=C(CCC(=O)O)c2cc3[nH]c(cc4nc(cc5[nH]c(cc1n2)c(C)c5C(C)O)C(C)=C4C(C)O)c(C)c3CCC(=O)O (stereo not shown) [hematoporphyrin]
CC50 at 48 h [1, 6]: 160 ± 139 µM | inhibition at 10 µM [2, 7]: 96.8%

COC(=O)C[C@](O)(CCC(C)(C)O)C(=O)O[C@@H]1C(OC)=C[C@]23CCCN2CCc2cc4c(cc2[C@H]13)OCO4 [Harringtonine]
CC50 at 48 h ([1]; Table 5, further results of Examples 1 and 2, mean ± spread): 0.07 ± 0.06 µM | IC50 [2, 7]: 23.7 µM | inhibition at 10 µM [2, 7]: 93.6% | IC50 [2, 8]: 23.4 µM | IC50 ([2]; Severe acute respiratory syndrome coronavirus 2, Caco-2, read-out: IC50: concentration of 50% inhibition of virus infection, Table 5, further results of Examples 1 and 2, […]): 19 µM | IC50 ([2]; Severe acute respiratory syndrome coronavirus 2, Caco-2, read-out: pIC50: -log10 of IC50, Table 5, further results of Examples 1 and 2 (converted)): 19.1 µM

CCCCN(CCCC)CCC(O)c1cc2c(Cl)cc(Cl)cc2c2cc(C(F)(F)F)ccc12 (stereo not shown) [Halofantrine]
Emax [5]: 51.8% | inhibition at 10 µM [2, 7]: 91.4%

CC/C(=C(\c1ccc(O)cc1)c1ccc(OCCNC)cc1)c1ccccc1 [Endoxifen HCl]
IC50 [5]: 6.34 µM | Emax [5]: 35.7%

FC(F)(F)c1ccc(CNc2ccc(Cc3c[nH]c4ncc(Cl)cc34)cn2)cn1 [Pexidartinib]
CC50 at 48 h [1, 6]: 41.5 ± 32.5 µM | IC50 [2, 7]: 5.92 µM | IC50 [2, 8]: 5.89 µM

CC(C)C(=O)OCC(=O)[C@@]12O[C@H](C3CCCCC3)O[C@@H]1C[C@H]1[C@@H]3CCC4=CC(=O)C=C[C@]4(C)[C@H]3[C@@H](O)C[C@@]12C [Ciclesonide]
IC50 [5]: 47 µM | Emax [5]: 35.2% | inhibition at 10 µM [2, 7]: 85.4%

O=C(O)Cc1cccc(OCCCN(Cc2cccc(C(F)(F)F)c2Cl)CC(c2ccccc2)c2ccccc2)c1 [GW-3965]
Emax [5]: 38% | inhibition at 10 µM [2, 7]: 91.4%

CO[C@H]1CC[C@H](N2C(=O)CNc3ncc(-c4ccc(C(C)(C)O)nc4)nc32)CC1 [CC-223]
CC50 at 48 h [1, 6]: 9.49 ± 2.55 µM | IC50 [2, 7]: 23.6 µM | inhibition at 10 µM [2, 7]: 104% | IC50 [2, 8]: 23.4 µM

NS(=O)(=O)OC[C@@H]1C[C@@H](n2ccc3c(N[C@H]4CCc5ccccc54)ncnc32)C[C@@H]1O [Pevonedistat hydrochloride]
CC50 at 48 h [1, 9]: 222 ± 332 µM | % Inh (% inhibition of virus infection) [3]: 75.1%

CCCCCCCCN=c1ccn(CCCCCCCCCCn2ccc(=NCCCCCCCC)cc2)cc1 [Octenidine Dihydrochloride]
CC50 at 48 h [1, 6]: 2.4 ± 0.09 µM | IC50 [2, 7]: 1.14 µM | inhibition at 10 µM [2, 7]: 77% | IC50 [2, 8]: 1.15 µM
